In patent US20240425523A1, “Compounds for the Degradation of EGFR Kinase” (Beigene Switzerland GMBH, priority 2023, published 2024):
pIC50: −log10 of the molar value.

Legend:
Assay type in all cases: cell-based
[1] = biological target: T1, EGFR-L858R/C797S (H1975-clone #8 cells) (Homo sapiens, UniProt P00533, C797S/L858R); experiment: Cell degradation of EGFR, HTRF assay, H1975-clone#8 (L858R/C797S) cells; settings: 16 h treatment; for DC50: EGFR degradation; for Dmax: maximum percentage of degradation
T1 construct: expressed in transfected cells; host or cells: H1975 (endogenous EGFR knocked out, clone #8)

[2] = biological target: p-EGFR Del19/C797S (H1975-clone #23 cells) (Homo sapiens, UniProt P00533); experiment: Cell p-EGFR inhibition assay, HTRF, H1975-clone#23 (DEL19/C797S) cells; settings: 16 h treatment; for Imax (%): maximum percentage of pEGFR inhibition; for pIC50: pEGFR inhibition
Summary of the method: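 Phospho-EGFR read by overnight HTRF on lysates, normalized to DMSO-treated high control; IC50, Hill slope and Imax fitted. Compounds were applied for 16 h (10 uM top, 5-fold steps, 8 doses) to an H1975 single clone carrying only exogenous Del19/C797S EGFR after sgRNA knockout of endogenous copies.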

[3] = biological target: T2, p-EGFR L858R (BaF3-L858R cells) (Homo sapiens, UniProt P00533, L858R); experiment: Cell p-EGFR inhibition assay, HTRF, BaF3-L858R cells; settings: 16 h treatment; for Imax (%): maximum percentage of pEGFR inhibition; for pIC50: pEGFR inhibition
T2 construct: host or cells: BaF3
Summary of the method: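 BaF3-L858R cells treated 16 h at 37 °C, 5% CO2 with compound from 10 uM top, 5-fold dilutions, 8 doses, in 0.1% DMSO medium. Lysates read overnight by HTRF p-EGFR antibodies; IC50 fitted to four-parameter curve against DMSO high control.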

[4] = biological target: T3, EGFR L858R (BaF3-L858R cells) (Homo sapiens, UniProt P00533, L858R); experiment: Cell degradation of EGFR, HTRF assay, BaF3-L858R cells; settings: 16 h treatment; for DC50: EGFR degradation; for Dmax: maximum percentage of degradation
T3 construct: host or cells: BaF3
Summary of the method: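 EGFR L858R levels measured by HTRF antibody pair in lysed BaF3-L858R cells after 16 h compound exposure (8-point 5-fold series from 10 uM final, 37° C). Degradation is relative to DMSO-only cells; DC50 fitted with Hill equation, Dmax taken as the largest percent loss.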

DC50 [1] [nM]	Dmax [1] [%]	Imax (%) [2] [%]	pIC50 [2]	Imax (%) [3] [%]	pIC50 [3]	DC50 [4] [nM]	Dmax [4] [%]	Compound
0.98	88.3	100.8	9.15	96.6	8.22	1.06	82.2	COC[C@@H]1CN(c2ccc3c(c2)N2C[C@@H]4CCC(COc5c(c(C)nn5C)-c5cc(cc(C)n5)C(=O)/N=C/2N3)C4)CCN1C1CN(C2CCN(c3cc(F)c([C@H]4CCC(=O)NC4=O)c(F)c3)CC2)C1 [Example 121, (R)-3-(2,6-difluoro-4-(4-(3-((S)-2-(methoxymethyl)-4-((7R,7^3S,E)-1^1,1^3 2^6-trimethyl-3-oxo-5^2,5^3-dihydro-1^1H,5^1H-9-oxa-4-aza-5(2,1)-benzo[d]imidazola-2(2,4)-pyridina-1(4,5)-pyrazola-7(1,3)-cyclopentanacyclononaphane-5^6-yl)piperazin-1-yl)azetidin-1-yl)piperidin-1-yl)phenyl)piperidine-2,6-dione]
3.24	52.2	98.9	9.30	96.8	7.96	4.53	70.7	Cc1cc2cc(n1)-c1cnn(CCO)c1OC[C@H]1CCC(C1)CN1/C(=N/C2=O)Nc2ccc(N3CCN(C4CCN(c5cc(F)c([C@H]6CCC(=O)NC6=O)c(F)c5)CC4)CC3)cc21 [Example 122, (R)-3-(2,6-difluoro-4-(4-(4-((7^1R,7^3S,E)-1^1-(2-hydroxyethyl)-2^6-methyl-3-oxo-5^2,5^3-dihydro-1^1H,5^1H-9-oxa-4-aza-5(2,1)-benzo[d]imidazola-2(2,4)-pyridina-1(4,5)-pyrazola-7(1,3)-cyclopentanacyclononaphane-5^6-yl)piperazin-1-yl)piperidin-1-yl)phenyl)piperidine-2,6-dione]
2.14	81.6	100.4	9.15	95.3	7.79	3.37	77.1	Cc1cc2cc(n1)-c1cnn(C)c1OC[C@H]1CCC(C1)CN1/C(=N/C2=O)Nc2ccc(N3CCN(C4CCN(c5ccc(NC6CCC(=O)NC6=O)cc5C)CC4)CC3)cc21 (some centres unmarked) [Example 123, 3-((4-(4-(4-((7^1R,7^3S,E)-1^1,2^6-dimethyl-3-oxo-5^2,5^3-dihydro-1^1H,5^1H-9-oxa-4-aza-5(2,1)-benzo[d]imidazola-2(2,4)-pyridina-1(4,5)-pyrazola-7(1,3)-cyclopentanacyclononaphane-5^6-yl)piperazin-1-yl)piperidin-1-yl)-3-methylphenyl)amino)piperidine-2,6-dione]
2.3	67.5	99.6	9.05	94.6	7.77	3.58	71.1	Cc1cc2cc(n1)-c1cnn(C)c1OC[C@H]1CCC(C1)CN1/C(=N/C2=O)Nc2ccc(N3CC(N(C)C4CCN(c5cc(F)c([C@H]6CCC(=O)NC6=O)c(F)c5)CC4)C3)cc21 [Example 124, (R)-3-(4-(4-((1-((7^1R,7^3S,E)-1^1,2^6-dimethyl-3-oxo-5^2,5^3-dihydro-1^1H,5^1H-9-oxa-4-aza-5(2,1)-benzo[d]imidazola-2(2,4)-pyridina-1(4,5)-pyrazola-7(1,3)-cyclopentanacyclononaphane-5^6-yl)azetidin-3-yl)(methyl)amino)piperidin-1-yl)-2,6-difluorophenyl)piperidine-2,6-dione]
2.61	67.4	101.9	8.66	98.6	7.69	1.37	77.1	Cc1cc2cc(n1)-c1cnn(C)c1OC[C@H]1CCC(C1)CN1/C(=N/C2=O)Nc2ccc(N3CC4(CCN(C5CCN(c6cc(F)c([C@H]7CCC(=O)NC7=O)c(F)c6)CC5)CC4)C3)cc21 [Example 125, (R)-3-(4-(4-(2-((7^1R,7^3S,E)-1^1,2^6-dimethyl-3-oxo-5^2,5^3-dihydro-1^1H,5^1H-9-oxa-4-aza-5(2,1)-benzo[d]imidazola-2(2,4)-pyridina-1(4,5)-pyrazola-7(1,3)-cyclopentanacyclononaphane-5^6-yl)-2,7-diazaspiro[3.5]nonan-7-yl)piperidin-1-yl)-2,6-difluorophenyl)piperidine-2,6-dione]
1.49	73.7	102.92	8.84	99.16	7.88	2.04	83.3	Cc1cc2cc(n1)-c1cnn(C)c1OC[C@H]1CCC(C1)CN1/C(=N/C2=O)Nc2ccc(N3CC4(CCN(C5CN(c6cc(F)c([C@H]7CCC(=O)NC7=O)c(F)c6)C5)CC4)C3)cc21 [Example 126, (R)-3-(4-(3-(2-((7^1R,7^3S,E)-1^1,2^6-dimethyl-3-oxo-5^2,5^3-dihydro-1^1H,5^1H-9-oxa-4-aza-5(2,1)-benzo[d]imidazola-2(2,4)-pyridina-1(4,5)-pyrazola-7(1,3)-cyclopentanacyclononaphane-5^6-yl)-2,7-diazaspiro[3.5]nonan-7-yl)azetidin-1-yl)-2,6-difluorophenyl)piperidine-2,6-dione]
6.07	81.9	100.85	8.39	101.7	8.31	9.26	88.8	COC[C@@H]1CN(c2ccc3c(c2)N2CC4CC[C@H](COc5c(c(C)nn5C)-c5cc(cc(C)n5)C(=O)/N=C/2N3)C4)CCN1CC1CCN(c2cc(F)c([C@H]3CCC(=O)NC3=O)c(F)c2)CC1 [Example 127, (R)-3-(2,6-difluoro-4-(4-(((S)-2-(methoxymethyl)-4-((7^1R,7^3S,E)-1^1,1^3,2^6-trimethyl-3-oxo-5^2,5^3-dihydro-1^1H,5^1H-9-oxa-4-aza-5(2,1)-benzo[d]imidazola-2(2,4)-pyridina-1(4,5)-pyrazola-7(1,3)-cyclopentanacyclononaphane-5^6-yl)piperazin-1-yl)methyl)piperidin-1-yl)phenyl)piperidine-2,6-dione]
0.867	72	103.08	9.10	102.8	8.19	4.84	69.1	Cc1cc2cc(n1)-c1cnn(C)c1OC[C@H]1CCC(C1)CN1/C(=N/C2=O)Nc2ccc(N3CCC(CN4CCC(Nc5cc(F)c([C@H]6CCC(=O)NC6=O)c(F)c5)CC4)CC3)cc21 [Example 131, (R)-3-(4-((1-((1-((7^1R,7^3S,E)-1^1,2^6-dimethyl-3-oxo-5^2,5^3-dihydro-1^1H,5^1H-9-oxa-4-aza-5(2,1)-benzo[d]imidazola-2(2,4)-pyridina-1(4,5)-pyrazola-7(1,3)-cyclopentanacyclononaphane-5^6-yl)piperidin-4-yl)methyl)piperidin-4-yl)amino)-2,6-difluorophenyl)piperidine-2,6-dione]
2.05	66	100.62	9.20	97.32	7.20	3.22	81	Cc1cc2cc(n1)-c1cnn(C)c1OC[C@H]1CCC(C1)CN1/C(=N/C2=O)Nc2ccc(N3CCC(CN4CC(Nc5cc(F)c([C@H]6CCC(=O)NC6=O)c(F)c5)C4)CC3)cc21 [Example 132, (R)-3-(4-((1-((1-((7^1R,7^3S,E)-1^1,2^6-dimethyl-3-oxo-5^2,5^3-dihydro-1^1H,5^1H-9-oxa-4-aza-5(2,1)-benzo[d]imidazola-2(2,4)-pyridina-1(4,5)-pyrazola-7(1,3)-cyclopentanacyclononaphane-5^6-yl)piperidin-4-yl)methyl)azetidin-3-yl)amino)-2,6-difluorophenyl)piperidine-2,6-dione]
2.94	86.5	99.55	8.84	96.88	8.54	2.36	85.7	COC[C@@H]1CN(c2ccc3c(c2)N2CC4CC[C@H](COc5c(c(C)nn5C)-c5cc(cc(C)n5)C(=O)/N=C/2N3)C4)CCN1C1CCN(c2c(F)cc(NC3CCC(=O)NC3=O)cc2F)CC1 (stereo partly drawn) [Example 133, 3-((3,5-difluoro-4-(4-((S)-2-(methoxymethyl)-4-((7R,7^3S,E)-1^1,1^3,2^6-trimethyl-3-oxo-5^2,5^3-dihydro-1^1H,5^1H-9-oxa-4-aza-5(2,1)-benzo[d]imidazola-2(2,4)-pyridina-1(4,5)-pyrazola-7(1,3)-cyclopentanacyclononaphane-5^6-yl)piperazin-1-yl)piperidin-1-yl)phenyl)amino)piperidine-2,6-dione]
